Results: PubChem BioAssay AID1919009 (Molecular Pharmacology Branch, DTP, NCI, 2023)
“And” between values parts separate entries of the source, which are not always exact repeats. Equal entries are not always repeated.

Tested on: K24384-001-R-PDC complex spheroid growth
Test: Anticancer human tumor K24384-001-R-PDC patient-derived pancreatic adenocarcinoma cell line growth inhibition [AhR]
Settings: for viability, T/C: stronger effect = lower value
In short: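 Complex tumor spheroids co-cultured with HUVEC and human MSC stroma; AhR antagonists tested in combination with standard-of-care and investigational agents. Top concentration at or near clinical Cmax (else 10 microM), half-log dilutions; growth expressed as percent test/control.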

[1] = curve of first compound, second compound 0.1 µM
[2] = curve of first compound, second compound 0.316 µM
[3] = curve of first compound, second compound 1 µM
[4] = curve of first compound, second compound 3.16 µM
[5] = curve of first compound, second compound 10 µM
[6] = second compound 0.1 µM, first compound 0.000316 µM
[7] = second compound 0.1 µM, first compound 0.001 µM
[8] = second compound 0.1 µM, first compound 0.00316 µM
[9] = second compound 0.1 µM, first compound 0.01 µM
[10] = second compound 0.1 µM, first compound 0.0316 µM
[11] = second compound 0.1 µM, first compound 0.1 µM
[12] = second compound 0.316 µM, first compound 0.000316 µM
[13] = second compound 0.316 µM, first compound 0.001 µM
[14] = second compound 0.316 µM, first compound 0.00316 µM
[15] = second compound 0.316 µM, first compound 0.01 µM
[16] = second compound 0.316 µM, first compound 0.0316 µM
[17] = second compound 0.316 µM, first compound 0.1 µM
[18] = second compound 1 µM, first compound 0.000316 µM
[19] = second compound 1 µM, first compound 0.001 µM
[20] = second compound 1 µM, first compound 0.00316 µM
[21] = second compound 1 µM, first compound 0.01 µM
[22] = second compound 1 µM, first compound 0.0316 µM
[23] = second compound 1 µM, first compound 0.1 µM
[24] = second compound 3.16 µM, first compound 0.000316 µM
[25] = second compound 3.16 µM, first compound 0.001 µM
[26] = second compound 3.16 µM, first compound 0.00316 µM
[27] = second compound 3.16 µM, first compound 0.01 µM
[28] = second compound 3.16 µM, first compound 0.0316 µM
[29] = second compound 3.16 µM, first compound 0.1 µM
[30] = second compound 10 µM, first compound 0.000316 µM
[31] = second compound 10 µM, first compound 0.001 µM
[32] = second compound 10 µM, first compound 0.00316 µM
[33] = second compound 10 µM, first compound 0.01 µM
[34] = second compound 10 µM, first compound 0.0316 µM
[35] = second compound 10 µM, first compound 0.1 µM
[36] = second compound 0.1 µM, first compound 0.316 µM
[37] = second compound 0.1 µM, first compound 1 µM
[38] = second compound 0.316 µM, first compound 0.316 µM
[39] = second compound 0.316 µM, first compound 1 µM
[40] = second compound 1 µM, first compound 0.316 µM
[41] = second compound 1 µM, first compound 1 µM
[42] = second compound 3.16 µM, first compound 0.316 µM
[43] = second compound 3.16 µM, first compound 1 µM
[44] = second compound 10 µM, first compound 0.316 µM
[45] = second compound 10 µM, first compound 1 µM
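For viability, T/C in this document: percent of DMSO vehicle-treated spheroid viability set as 100%.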

Compound | IC50 [1] | IC50 [2] | IC50 [3] | IC50 [4] | IC50 [5] | viability, T/C [8] | viability, T/C [9] | viability, T/C [10] | viability, T/C [11] | viability, T/C [14] | viability, T/C [15] | viability, T/C [16] | viability, T/C [17] | viability, T/C [20] | viability, T/C [22] | viability, T/C [23] | viability, T/C [28] | viability, T/C [29] | viability, T/C [34] | viability, T/C [35] | also measured
Cn1ncnc1C1c2n[nH]c(=O)c3cc(F)cc(c23)NC1c1ccc(F)cc1 (configuration not stated) + Cc1ccccc1N=Nc1ccc(NC(=O)c2ccnn2C)c(C)c1 | > 100 nM | > 100 nM | > 100 nM | > 100 nM | > 100 nM | 110% | 98.2% | 79% | 96.7% | 75.8% | 74.3% | 67.1% | 73.5% | 73.3% | 66.3% | 66% | 65.6% | 62.8% | 82.3% | 66.2% | viability, T/C [6]: 100%; viability, T/C [7]: 110%; viability, T/C [12]: 104%; viability, T/C [13]: 112%; viability, T/C [18]: 98.2%; viability, T/C [19]: 84.3%; viability, T/C [21]: 72.8%; viability, T/C [24]: 86.9%; viability, T/C [25]: 87.8%; viability, T/C [26]: 87.6%; viability, T/C [27]: 67.4%; viability, T/C [30]: 91.8%; viability, T/C [31]: 84%; viability, T/C [32]: 102%; viability, T/C [33]: 86%
CC[C@@]1(O)C(=O)OCc2c1cc1n(c2=O)Cc2cc3c(CN(C)C)c(O)ccc3nc2-1 + Cc1ccccc1N=Nc1ccc(NC(=O)c2ccnn2C)c(C)c1 | 28.1 nM | 24.5 nM | 28.4 nM | 19.6 nM | 30.7 nM | 95.4% | 72.2% | 48.5% | 44.9% | 98.6% | 70.5% | 46.9% | 39.6% | 94.7% | 50.2% | 38.4% | 38.3% | 39.1% | 51.5% | 47.4% | viability, T/C [6]: 93.4%; viability, T/C [7]: 96.2%; viability, T/C [12]: 97.3%; viability, T/C [13]: 90.7%; viability, T/C [18]: 101%; viability, T/C [19]: 94.1%; viability, T/C [21]: 67.8%; viability, T/C [24]: 87.3%; viability, T/C [25]: 99.8%; viability, T/C [26]: 92.5%; viability, T/C [27]: 65.8%; viability, T/C [30]: 111%; viability, T/C [31]: 101%; viability, T/C [32]: 109%; viability, T/C [33]: 68.7%
CC[C@@]1(O)C(=O)OCc2c1cc1n(c2=O)Cc2cc3c(CN(C)C)c(O)ccc3nc2-1 |  |  |  |  |  |  |  |  |  |  |  |  |  |  |  |  |  |  |  |  | viability, T/C (compound 0.000316 µM): 107% and 108% and 98.2%; viability, T/C (compound 0.001 µM): 99.3% and 117% and 102%; viability, T/C (compound 0.00316 µM): 95.4% and 87.5% and 95.7%; viability, T/C (compound 0.01 µM): 89.1% and 80% and 82.3%; viability, T/C (compound 0.0316 µM): 77.6% and 75.8% and 57.6%; viability, T/C (compound 0.1 µM): 53.6% and 53.5% and 41.5%; IC50 (curve of compound): > 100 nM and 54.2 nM
CC1COCCN1c1cc(-c2ccnn2C)c2ccnc(-c3ccn[nH]3)c2n1 (configuration not stated) + Cc1ccccc1N=Nc1ccc(NC(=O)c2ccnn2C)c(C)c1 | 103 nM | 105 nM | 94.8 nM | 99.1 nM | 168 nM | 101% | 107% | 82.2% | 52.3% | 114% | 120% | 80.5% | 54.2% | 103% | 102% | 47.5% | 82.1% | 48.7% | 108% | 57.1% | viability, T/C [36]: 29.6%; viability, T/C [37]: 28.2%; viability, T/C [38]: 32.5%; viability, T/C [39]: 26.7%; viability, T/C [21]: 99.5%; viability, T/C [40]: 29.1%; viability, T/C [41]: 28.6%; viability, T/C [26]: 101%; viability, T/C [27]: 92.1%; viability, T/C [42]: 33.4%; viability, T/C [43]: 28.5%; viability, T/C [32]: 129%; viability, T/C [33]: 128%; viability, T/C [44]: 39.7%; viability, T/C [45]: 42.4%
Nc1ccccc1NC(=O)c1ccc(CNC(=O)OCc2cccnc2)cc1 + Cc1cncc(-c2nc(NCCc3c[nH]c4ccccc34)c3ncn(C(C)C)c3n2)c1 | 1740 nM | 1100 nM | 1500 nM | 951 nM | < 31.6 nM |  |  | 90% | 86.7% |  |  | 111% | 108% |  | 111% | 99.8% | 77.6% | 93.2% | 15.2% | 10.7% | viability, T/C [36]: 79.6%; viability, T/C [37]: 69.3%; viability, T/C (second compound 0.1 µM, first compound 3.16 µM): 30.3%; viability, T/C (second compound 0.1 µM, first compound 10 µM): 6.17%; viability, T/C [38]: 77.7%; viability, T/C [39]: 48.3%; viability, T/C (second compound 0.316 µM, first compound 3.16 µM): 31%; viability, T/C (second compound 0.316 µM, first compound 10 µM): 3.5%; viability, T/C [40]: 87%; viability, T/C [41]: 56.6%; viability, T/C (second compound 1 µM, first compound 3.16 µM): 33.6%; viability, T/C (second compound 1 µM, first compound 10 µM): 2.82%; viability, T/C [42]: 61.9%; viability, T/C [43]: 43%; viability, T/C (second compound 3.16 µM, first compound 3.16 µM): 33.1%; viability, T/C (second compound 3.16 µM, first compound 10 µM): 1.51%; viability, T/C [44]: 7.68%; viability, T/C [45]: 5.34%; viability, T/C (second compound 10 µM, first compound 3.16 µM): 4.19%; viability, T/C (second compound 10 µM, first compound 10 µM): 0.39%
